Laboratory results reported in patent publication US7582786B2, “Synthetic catalytic free radical scavengers useful as antioxidants for prevention and therapy of disease” (Eukarion Inc., priority 1996, dated 2009).

Tests used:
SJL female mice = experiment: Experimental autoimmune encephalomyelitis (EAE); assay type: in vivo, mouse
Source text: EAE is an animal model of multiple sclerosis.
Mice in both groups were immunized with an encephalitogenic PLP peptide in complete Freund's adjuvant subcutaneously, followed by Petrussis Toxin (IV). Petrussis toxin was repeated on day 3 post immunization.

[1] = test system: dopaminergic neurons in mouse striatum; experiment: 6-OHDA model of neuronal injury in mice (3H-mazindol binding in striatal homogenates); assay type: in vivo
Protocol: 6-OHDA in mice. Adult male CFW mice were anesthetized with ketamine and rumpun, and immobilized in a stereotaxic device. 6-OHDA, as the hydrobromide salt, was dissolved in normal saline with 1% ascorbate, and 50 μg was administered in lateral ventricle by means of a 10 μl Hamilton syringe. […] Animals were sacrificed 7 days later, and neuronal pathology was assessed by measuring ^3H-mazindol binding in striatal homogenates.

mice = experiment: Mouse skin transplantation model; assay type: in vivo; conditions: 50 mg/kg single intraperitoneal injection at grafting
Protocol: In this model, donor and recipient mice were immunologically mismatched (ClassI/Class II MHC mismatched). A piece of skin (˜1 cm^2) from the tail of a donor mouse was transplanted onto the back of a recipient mouse. The graft was bandaged and observed daily for rejection, as indicated by loss of vascularization and necrosis. Recipient mice received vehicle (Control) or 50 mg/kg C40 as a single intraperitoneal injection at the time of grafting.

Rats = experiment: Rat model for stroke, Middle Cerebral Artery occlusion; assay type: in vivo; conditions: single intravenous injection 3 hr after MCA occlusion
Protocol: (§1) Rats were subjected to a Middle Cerebral Artery (MCA) Occlusion model involving permanent occlusion of the parietal branch of the left middle cerebral artery and temporary (60 min) occlusion of the common carotid arteries. As indicated, rats received a single intravenous injection of vehicle (Control), or C40 at 3 hr after the MCA was occluded. Twenty-one hr after MCA occlusion, brains were removed, sectioned, and stained with the viability dye TTC (2,3,5-triphenyltetrazolium chloride). The stained sections were photographed and the volumes of infarcted (unstained) and viable (red stained) brain tissue quantitated by image analysis.
as §1, with “occlusion” for “Occlusion”

[2] = C7 4×66 mg/kg i.p., 6-OHDA 50 μg i.c.v.

| SMILES | mice developing symptomatic EAE (SJL female mice; fifth week, three weeks after treatment with C7 was stopped) | mice developing symptomatic EAE (SJL female mice; third week following immunization, C7 1 mg/mouse IP daily, day -2 to 14) | mazindol binding, contralateral striatum [1, 2] | mazindol binding, ipsilateral striatum [1, 2] | crossing of the blood brain barrier ([1]; concluded from effects of peripheral injections in in vivo models) | protection from 6-OHDA-induced degeneration ([1]; mouse, in vivo) | graft rejection (mice) | protection, infarct volume (Rats) |
| --- | --- | --- | --- | --- | --- | --- | --- | --- |
| [Cl][Mn]1[O]c2ccccc2C=NCCN=Cc2ccccc2[O]1 [Compound C7] | six | one of 10 | complete protection | significant reduction | crosses the blood brain barrier | protects dopaminergic neurons |  |  |
| COc1cccc2c1[O][Mn]([Cl])[O]c1c(cccc1OC)C=NCCN=C2 [Compound C40] |  |  |  |  |  |  | delays rejection | protective |
